# Results taken from patent US9968634B2, “Techniques and systems for treatment of neuropathic pain and other indications” (priority 2012, dated 2018).
# Legend:
# [1] = system: micro-capillary blood flow to skin; experiment: Laser Doppler study with closed Hilltop chamber on forearm, Example 5; assay type: in vivo, human; settings: applied to the skin at 1/10% in alcohol
# Source text: The formulation used in these studies contained nitric oxide dispersed in a lipid matrix. […] Nitric oxide is a very rapid acting molecule, and these studies used a system that employed laser Doppler with a covered chamber. The formulation was placed into the chamber and then attached to the skin by an adhesive layer on the covering. This provided a stable measuring device as determined by multiple normal evaluations of the capillary blood flow without treatment of nitric oxide.
# A known positive control, methyl nicotinate, was applied to the skin at a concentration of 1/10% in alcohol. […] The vascular dynamics are such that when the blood vessels dilate physical parameters follow Bernoulli's law. […] The laser Doppler device accurately measured these parameters.
# In these studies, the participants were healthy females aged 30 to 55 years. They were in good health as determined by the medical history and were not taking any prescription medications. All study participants read and signed the informed consent statement prior to any study procedures being performed. […]
# A Moor Instruments DRT4 Laser Doppler Blood Flow Monitor (Devon, England) was used in these studies. The laser Doppler technique measured blood flow in the microcapillaries of the skin that are close to the skin surface and the blood flow in underlying arterioles and venules that help to regulate skin temperature. […]
# [2] = system: capillary circulation of the skin; experiment: Laser Doppler study of creams in five human subjects, Example 7; assay type: in vivo; settings: positive control formulation, 0.1% methyl nicotinate
# Source text: This example illustrates delivery of nitric oxide formulations to five human subjects, using procedures and formulations similar to those discussed in Example 5. Each person served as their own control for the testing. A Moor Instruments Laser Doppler was used to determine circulation. […] The formulations used produce positive, almost immediate results when applied to the skin which, in these studies, was manifested by vasodilatation of the cutaneous vascular system.
# For each subject, the following creams were applied: a negative control formulation (containing no NO), 0.010 gram of a 10,000 ppm NO formulation, 0.020 gram of a 10,000 ppm NO formulation, and a positive control formulation containing 0.1% methyl nicotinate. The formulations were prepared using procedures similar to those discussed in Example 1.
smiles,measurement,setting,value
COC(=O)c1cccnc1 [methyl nicotinate],laser Doppler response of positive control,[1],rapid response typical of the vasodilator
same,vasodilatation (laser Doppler),[2],vasodilatation was observed
